According to patent US20190091227A1, “METHODS FOR TREATING ER+, HER2-, HRG+ BREAST CANCER USING COMBINATION THERAPIES COMPRISING AN ANTI-ERBB3 ANTIBODY” (Merrimack Pharmaceuticals, Inc., priority 2016, published 2019):
Where two headings read alike, the source gives them in different places.

What was measured:
MCF7 cells [1] = assay: Proliferation assay (Cell Titer-Glo), MCF7; type: cell-based, human; settings: for proliferation: MCF7, single agent CDK4/6 inhibitor over a dose range
Procedure: (§1) Cells were seeded in duplicate or triplicate at 1500 to 5000 cells per well in 96 well plates, Opaque-walled 96-well plates with clear bottom: 96-well, Black/Clear, Flat bottom with lid, FALCON, 353219 in reduced serum conditions at either 3% v/v FBS or 1% v/v FBS. The day after plating recombinant HRGβ1 was added to yield a final concentration of 10 nM. Control wells received media without HRGβ1. Plates were then incubated for the indicated time period of 4 to 6 days at 37° C. in a humid atmosphere with 95% air, 5% CO2.
(§2) The day after plating recombinant HRGβ1 was added to yield a final concentration of 10 nM. Control wells received media without HRGβ1. […] Where indicated CDK inhibitors were added at 10 μM and dilutions were performed to generate a dose-response curve with 2 controls wells per row. Plates were then incubated for the indicated time period of 4 to 6 days at 37° C. in a humid atmosphere with 95% air, 5% CO2. Growth inhibition was calculated as a function of the relative inhibition or proliferation of cells treated with either growth factor or antagonists to cells treated with diluent only, over the same time period.
(§3) The day after plating recombinant HRGβ1 was added to yield a final concentration of 10 nM. Control wells received media without HRGβ1. […] Where indicated CDK inhibitors were added at 10 μM and dilutions were performed to generate a dose-response curve with 2 controls wells per row. Plates were then incubated for the indicated time period of 4 to 6 days at 37° C. in a humid atmosphere with 95% air, 5% CO2.
(§4) To measure proliferation, Cell Titer-Glo (CTG) assays were performed as per manufacturer's instructions. Specifically, reagent-1 and reagent-2 were equilibrated to room temperature at which point reagent-1 was added to reagent-2 and mixed by vortex. Test plates containing cells were equilibrated to room temperature for 30 minutes at which point an equal volume of CTG reagent was added to each well of the test plate, typically 100 μl to give a final volume of 200 μl per well. Each plate was then sealed with a foil plate sealer and mixed on an orbital shaker for 10 minutes to lyse cells and release cellular ATP. Following mixing plates were incubated at room temperature for 15 minutes to stabilize the luminescent signal. Data was collected by measuring relative luminescence on a Synergy H1 plate reader using the luminescence program. Growth was calculated and expressed as a relative value to the unstimulated control wells on each individual plate. Growth inhibition was calculated as a function of the relative inhibition of cells treated with antagonists to the growth of cells treated with diluent only, over the same time period. Data was then plotted using GraphPad Prism software.

RB = RB phosphorylation (S807/811, S780) by Western blotting in MCF7 cells; type: cell-based, human; settings: for RB phosphorylation / activation: MCF7, 20-24 hours, HRG 10 nM, fulvestrant 50 nM, palbociclib, abemaciclib 40 nM
Procedure: MCF7 cells were cultured as described above. […] Cellular lysates were prepared by lysis in MPER lysis buffer with the addition of protease and phosphatase inhibitors for 30 mins on ice. Cellular debris were removed by centrifugation at 10,000 rpm. Proteins were analyzed by Western blotting according to standard protocols. Protein loading was estimated by blotting with a β-actin antibody (β-Actin (13E5) Rabbit mAb #4970 Cell Signal) and RB activation was measured by detection of phosphorylation of RB (pRB) at pRb (S807/811): Cat #8516 pRb (S780): Cat #8180. Control antibodies as follows total AKT: Cat #9272 pAKT: Cat #4060.

[2] = cited from earlier work
T47D cells = assay: Proliferation assay (Cell Titer-Glo), T47D; type: cell-based, human
Procedure: as §1, §2, §3, §4

CDK2 = CDK2 activation (phospho-Thr160) by Western blotting in MCF7 cells; type: cell-based, human
Procedure: Cellular lysates were prepared by lysis in MPER lysis buffer with the addition of protease and phosphatase inhibitors for 30 minutes on ice. Cellular debris was removed by centrifugation at 10,000 rpm. Proteins were analyzed by Western blotting according to standard protocols.

MCF7 cells [3] = assay: Cell cycle / S-phase by EdU incorporation and flow cytometry in MCF7 cells; type: cell-based, human
Procedure: FIG. 13 is a representative FACS plot of the cell cycle distribution. The gate settings and percentage for cells in G0/G1, S and G2/M phases are indicated. DNA synthesis (S-phase) was determined by quantifying cells positive for both EdU incorporation and DNA content.

MCF-7Ca xenograft tumors = assay: MCF-7Ca xenograft model of post-menopausal ER+ breast cancer; type: in vivo, mice
Procedure: A model of post-menopausal ER+ breast cancer was used to determine the effect of blocking HRG-mediated ERB3 signaling and/or estrogen-mediated ER activation on tumor growth (FIG. 16). […] Changes in mean tumor volume (±SEM) were determined weekly by caliper measurement.

ZR75-1 cells = assay: Proliferation assay (Cell Titer-Glo), ZR75-1; type: cell-based, human; settings: ZR75-1, CDK4/6 inhibitor plus HRG
Procedure: as §2
The day after plating recombinant HRGβ1 was added to yield a final concentration of 10 nM. Control wells received media without HRGβ1. […]
To measure proliferation, Cell Titer-Glo (CTG) assays were performed as per manufacturer's instructions. […] Data was collected by measuring relative luminescence on a Synergy H1 plate reader using the luminescence program. Growth was calculated and expressed as a relative value to the unstimulated control wells on each individual plate. Growth inhibition was calculated as a function of the relative inhibition of cells treated with antagonists to the growth of cells treated with diluent only, over the same time period. […]

MCF7 cells [4] = assay: MCF7 orthotopic xenograft model of ER+ HER2- breast cancer; type: in vivo; settings: SHO mice
Procedure: Female SHO mice (Charles River Laboratories) aged 8-10 weeks were implanted with 17-beta-estradiol pellets (0.72 mg/pellet) and 2 days later, injected with 100 μl of 5×10^6 MCF7 cells suspended in 50% DPBS/50% matrigel into the abdominal mammary fat pad. Tumor growth was monitored twice a week and tumor volumes were calculated following external caliper measurement according to the formula (tumor size=π/6×[length×width^2]). Once the average measured tumor volume had reached approximately 200 mm^3, mice were randomized into groups and treatment was administered. Overall, the average starting tumor volume per group was equivalent across all groups. Fulvestrant was dosed at 500 μg per mouse once per week via subcutaneous delivery. Palbociclib was dosed at 25 mg/kg, orally every day for 5 days, Monday through Friday.

CCN1CCN(Cc2ccc(Nc3ncc(F)c(-c4cc(F)c5nc(C)n(C(C)C)c5c4)n3)nc2)CC1 [abemaciclib, 2-pyrimidinamine, N-(5-((4-ethyl-1-piperazinyl)methyl)-2-pyridinyl)-5-fluoro-4-(4-fluoro-2-methyl-1-(1-methylethyl)-1H-benzimidazol-6-yl), reference compound]
proliferation (MCF7 cells [1]; 6 days): inhibited proliferation in a dose dependent manner | RB phosphorylation / activation (RB): decrease RB activation

CC(C)(C#N)c1cc(Cn2cncn2)cc(C(C)(C)C#N)c1 [anastrozole, a,a,a′,a′-Tetramethyl-5-(1H-1,2,4-triazol-1-ylmethyl)-1,3-benzenediacetonitrile]
solubility ([2]; in acetone): freely soluble | solubility ([2]; in acetonitrile): very soluble | solubility ([2]; in ethanol): freely soluble | solubility ([2]; in methanol): freely soluble | solubility ([2]; in tetrahydrofuran): freely soluble

C[C@]12CC[C@@H]3c4ccc(O)cc4C[C@@H](CCCCCCCCC[S+]([O-])CCCC(F)(F)C(F)(F)F)[C@H]3[C@@H]1CC[C@@H]2O (stereo partly drawn) [fulvestrant, 7-alpha-[9-(4,4,5,5,5-pentafluoropentylsulphinyl)nonyl]estra-1,3,5-(10)-triene-3,17beta-diol, reference compound]
degree of inhibition of proliferation (MCF7 cells [1]; MCF7, CDK4/6 inhibitor plus fulvestrant (50 nM)): greater than the activity of the CDK4/6 inhibitor alone | fulvestrant activity on proliferation (MCF7 cells [1]; MCF7, HRG present in addition to estradiol): significantly decreased | inhibition of estradiol induced proliferation (MCF7 cells [1]; MCF7, fulvestrant 100 nM, 6 days): effective at inhibiting estradiol induced proliferation | fulvestrant activity on proliferation (T47D cells; HRG present in addition to estradiol): significantly decreased | inhibition of estradiol induced proliferation (T47D cells; fulvestrant 100 nM, 6 days): effective at inhibiting estradiol induced proliferation | CDK2 activation (CDK2; MCF7, agent alone, 20-24 hours, HRG 10 nM, fulvestrant, palbociclib, abemaciclib 100 nM): inhibited CDK2 activation | S-phase cell cycle progression (MCF7 cells [3]; MCF7, single agents in the absence of HRG): efficacious at inhibiting S-phase cell cycle progression | RB phosphorylation / activation (RB): inhibits RB activation

N#Cc1ccc(C(c2ccc(C#N)cc2)n2cncn2)cc1 [letrozole, 4,4′-(1H-1,2,4-Triazol-1-ylmethylene)dibenzonitrile]
tumor response (MCF-7Ca xenograft tumors; letrozole 10 μg/mouse/day x 5 days/week SQ): initially responded | start of development of resistance (MCF-7Ca xenograft tumors; letrozole monotherapy, time of treatment): 7-8 weeks | solubility ([2]; in dichloromethane): freely soluble | solubility ([2]; in ethanol): slightly soluble | solubility ([2]; in water): practically insoluble

CN(C)C(=O)c1cc2cnc(Nc3ccc(N4CCNCC4)cn3)nc2n1C1CCCC1 [ribociclib, 7-cyclopentyl-N,N-dimethyl-2-((5-(piperazin-1-yl)pyridin-2-yl)amino)-7H-pyrrolo[2,3-d]pyrimidine-6-carboxamide, reference compound]
proliferation (MCF7 cells [1]; 6 days): inhibited proliferation in a dose dependent manner

B1: seribantumab: human monoclonal anti-ErbB3 IgG2; heavy and light chains SEQ ID NO: 7 and 8 (antibody)
heavy: EVQLLESGGGLVQPGGSLRLSCAASGFTFSHYVMAWVRQAPGKGLEWVSSISSSGGWTLYADSVKGRFTISRDNSKNTLYLQMNSLRAEDTAVYYCTRGLKMATIFDYWGQGTLVTVSSASTKGPSVFPLAPCSRSTSESTAALGCLVKDYFPEPVTVSWNSGALTSGVHTFPAVLQSSGLYSLSSVVTVPSSNFGTQTYTCNVDHKPSNTKVDKTVERKCCVECPPCPAPPVAGPSVFLFPPKPKDTLMISRTPEVTCVVVDVSHEDPEVQFNWYVDGVEVHNAKTKPREEQFNSTFRVVSVLTVVHQDWLNGKEYKCKVSNKGLPAPIEKTISKTKGQPREPQVYTLPPSREEMTKNQVSLTCLVKGFYPSDIAVEWESNGQPENNYKTTPPMLDSDGSFFLYSKLTVDKSRWQQGNVFSCSVMHEALHNHYTQKSLSLSPGK
light: QSALTQPASVSGSPGQSITISCTGTSSDVGSYNVVSWYQQHPGKAPKLIIYEVSQRPSGVSNRFSGSKSGNTASLTISGLQTEDEADYYCCSYAGSSIFVIFGGGTKVTVLGQPKAAPSVTLFPPSSEELQANKATLVCLVSDFYPGAVTVAWKADGSPVKVGVETTKPSKQSNNKYAASSYLSLTPEQWKSHRSYSCRVTHEGSTVEKTVAPAECS
effect of adding seribantumab on CDK4/6 inhibitor activity (MCF7 cells [1]; MCF7, CDK4/6 inhibitor plus HRG 10 nM): restored CDK inhibitory activity | effect of adding seribantumab on the CDK4/6 inhibitor-fulvestrant combination (MCF7 cells [1]; MCF7, with HRG): restored sensitivity | effect of adding seribantumab on proliferation (MCF7 cells [1]; MCF7 treated with fulvestrant, estradiol and HRG): restoration of the activity of fulvestrant | effect of adding seribantumab on CDK4/6 inhibitor activity (ZR75-1 cells): restored sensitivity | effect on HRG-induced CDK2 activation (CDK2; MCF7, in the presence of fulvestrant or CDK4/6 inhibitors palbociclib and abemaciclib): blocked HRG mediated activation of CDK2 | effect on HRG-induced CDK2 activation (CDK2; MCF7, seribantumab 1 uM, HRG 10 nM): can block the activating effect of HRG on CDK2 activation | effect of seribantumab on cell cycle inhibitory activity of fulvestrant or palbociclib (MCF7 cells [3]; MCF7, in the presence of HRG): restores this activity | effect of seribantumab on cell cycle inhibitory activity of the palbociclib-fulvestrant combination (MCF7 cells [3]; MCF7, in the presence of HRG): restored this activity | growth inhibition, addition of seribantumab to the combination of palbociclib and fulvestrant (MCF7 cells [4]): increases the growth inhibition | antitumor efficacy, addition of seribantumab to fulvestrant (MCF7 cells [4]; seribantumab 600 μg twice per week IP, fulvestrant 500 μg once per week SC): increased the antitumor efficacy | antitumor efficacy, addition of seribantumab to palbociclib (MCF7 cells [4]; seribantumab 600 μg twice per week IP, palbociclib 25 mg/kg orally): increased the antitumor efficacy | effect of seribantumab on activity of fulvestrant, palbociclib and abemaciclib on RB (RB; MCF7, seribantumab 1 uM, with HRG, alone or in combination): restored the activity | resistance to letrozole (MCF-7Ca xenograft tumors; co-treated with letrozole and seribantumab): substantially delayed | tumor growth (MCF-7Ca xenograft tumors; co-treated with letrozole and seribantumab (750 μg/mouse IP)): tumor growth was inhibited | tumor growth of letrozole-resistant tumors (MCF-7Ca xenograft tumors; re-randomized at week 14, letrozole and seribantumab compared to letrozole alone): significantly decreased tumor growth
